A short description of one data set: Acute toxicity. The conditions noted are these: mouse, in vivo; oral, male ddY mice, observed 5 days; read-out: LD50 (50% lethal dose). The source says: Male ddY mice weighing 20-28 g were used at 10 per group. They were orally administered with the compound of Example 24 and observed for 5 days after the administration.
The target in data set [1] is T1, serotonin 2 (5-HT2) receptor (Rattus norvegicus, UniProt P14842).
T1 construct: A crude synaptosome fraction was separated from hippocampus; from tissue; host or cells: hippocampus of 9-10 week-old Wistar rats, crude synaptosome fraction
T1 sequence (P14842 whole entry): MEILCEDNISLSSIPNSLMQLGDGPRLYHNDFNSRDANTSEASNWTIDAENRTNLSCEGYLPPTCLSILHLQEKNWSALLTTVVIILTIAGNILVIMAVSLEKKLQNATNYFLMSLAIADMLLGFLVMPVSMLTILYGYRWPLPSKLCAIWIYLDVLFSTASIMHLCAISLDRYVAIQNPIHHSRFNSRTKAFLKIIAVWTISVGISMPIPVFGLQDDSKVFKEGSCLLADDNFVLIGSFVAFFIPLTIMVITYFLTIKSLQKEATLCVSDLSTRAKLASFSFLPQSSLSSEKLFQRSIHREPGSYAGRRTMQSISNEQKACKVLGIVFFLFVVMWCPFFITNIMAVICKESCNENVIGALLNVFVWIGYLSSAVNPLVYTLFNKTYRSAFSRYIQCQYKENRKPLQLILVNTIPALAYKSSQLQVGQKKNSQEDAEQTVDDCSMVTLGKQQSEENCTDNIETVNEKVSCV
Put plainly: Affinity for serotonin 2 receptor (tritiated ketanserin binding). Set-up: species or system Wistar rats. As to conditions: rat hippocampus crude synaptosomes; [3H]ketanserin 0.2 nM; 37° C., 20 min. Here is the method:
Affinity for serotonin 2 receptor
A specific binding of serotonin 2 (5-HT2) receptor was tested according to the method described in Mol. Pharmacol. 21, 301 (1981).
A crude synaptosome fraction was separated from hippocampus of 9-10 week-old Wistar rats, and suspended in 50 mM Tris-HCl buffer (pH 7.7) for the experiment. The test compound at several concentration and tritiated ketanserin (final concentration 0.2 nM) were added to the synaptosome suspension, and each mixture was incubated at 37° C. for 20 minutes. After the incubation, the mixture was filtered with suction through Whatman GF/B (trade mark) glass filter. The filter was washed with 50 mM Tris-HCl buffer (pH 7.7), and the radioactivity of the filter was measured by a liquid scintillation counter. Non-specific binding was determined in the presence of 10^-5 M mianserin. The concentration necessary for 50% inhibition (IC50) was determined on a graph, and inhibition constant (Ki value ) was calculated.

The subject of data set [2] is apomorphine-induced hyperactivity. Nature of the data set: Anti-apomorphine action (in mouse). Type of data set: in vivo, male dd mice. The conditions noted are these: oral, 60 min before 0.5 mg/kg s.c. apomorphine hydrochloride, movement lowered by 50%. Here is the method:
Anti-apomorphine action (in mouse)
Male dd mice at 3 per group were used for the experiment. The test compound was orally administered to the mice, and 60 minutes later, 0.5 mg/kg of apomorphine hydrochloride was subcutaneously administered. the movement for 20 minutes from immediately after the administration of apomorphine hydrochloride was measured using Valimex (Columbus, USA). Each group was tested four times, and the amount of the test compound necessary to lower the movement by 50% than that of a control group was calculated from a graph and taken as ED50.

In data set [3] the target is T2, serotonin 1A (5-HT1A) receptor (Rattus norvegicus, UniProt P19327).
T2 construct: A crude synaptosome fraction was separated from hippocampus; from tissue; host or cells: hippocampus of 9-10 week-old Wistar rats, crude synaptosome fraction
T2 sequence (P19327 1-422): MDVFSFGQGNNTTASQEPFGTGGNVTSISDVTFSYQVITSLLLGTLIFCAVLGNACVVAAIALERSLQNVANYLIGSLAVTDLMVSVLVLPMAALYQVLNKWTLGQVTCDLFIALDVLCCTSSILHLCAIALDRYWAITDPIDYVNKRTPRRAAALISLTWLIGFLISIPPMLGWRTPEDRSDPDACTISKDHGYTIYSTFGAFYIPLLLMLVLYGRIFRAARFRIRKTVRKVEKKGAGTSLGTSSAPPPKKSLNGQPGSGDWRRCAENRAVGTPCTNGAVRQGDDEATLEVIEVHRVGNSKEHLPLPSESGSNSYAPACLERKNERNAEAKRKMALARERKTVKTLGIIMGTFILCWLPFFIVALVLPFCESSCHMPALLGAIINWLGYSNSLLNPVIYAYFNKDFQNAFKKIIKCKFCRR
Nature of the data set: Affinity for serotonin 1A receptor (tritiated 8-OH-DPAT binding). The conditions noted are these: rat hippocampus crude synaptosomes; [3H]8-OH-DPAT 0.2 nM; 37° C., 12 min. Further details: species or system Wistar rats. Here is the method:
Affinity for serotonin 1A receptor
A specific binding of serotonin 1A (5-HT1A) receptor was tested according to the method described in J. Neurochem. 44, 1685 (1985).
A crude synaptosome fraction was separated from hippocampus of 9-10 week-old Wistar rats, and suspended in 50 mM Tris-HCl buffer (pH 7.4) containing 1 mM manganese chloride for the experiment. The test compound at several concentrations and tritiated 8-hydroxy-2-dipropyl-aminotetralin(8-OH-DPAT, final concentration 0.2 nM) were added to the synaptosome suspension, and each mixture was incubated at 37° C. for 12 minutes. After the incubation, the mixture was filtered with suction through Whatman GF/B (trade mark) glass filter. The filter was washed with 50 mM Tris-HCl buffer (pH 7.7), and the radioactivity of the filter was measured by a liquid scintillation counter. Non-specific binding was determined in the presence of 10^-5 M serotonin (5-HT). The concentration necessary for 50% inhibition (IC50) was determined on a graph, and inhibition constant (Ki value) was calculated.

Data set [4] has as its system ergometrine-induced head-twitches. Nature of the data set: Anti-ergometrine action (head-twitch). Type of data set: in vivo, male ddY mice. As to conditions: Mus musculus; oral, 60 min before 20 mg/kg i.p. ergometrine maleate; head-twitch vanished, Probit. Here is the method: Male ddY mice at 12 per group were used for the experiment. The test compound was orally administered to the mice, and 60 minutes later, 20 mg/kg of ergometrine maleate was intraperitoneally administered. The amount of the test compound necessary to vanish the head-twitch reaction for 10 minutes from immediately after the administration of ergometrine maleate was calculated as ED50 value by Probit method.

In another data set the target is T3, dopamine 2 (D2) receptor (Rattus norvegicus, UniProt P61169).
T3 construct: A synaptosome fraction was separated from corpus striatum; from tissue; host or cells: corpus striatum of 9-10 week-old Wistar rats, synaptosome fraction
T3 sequence (P61169 whole entry): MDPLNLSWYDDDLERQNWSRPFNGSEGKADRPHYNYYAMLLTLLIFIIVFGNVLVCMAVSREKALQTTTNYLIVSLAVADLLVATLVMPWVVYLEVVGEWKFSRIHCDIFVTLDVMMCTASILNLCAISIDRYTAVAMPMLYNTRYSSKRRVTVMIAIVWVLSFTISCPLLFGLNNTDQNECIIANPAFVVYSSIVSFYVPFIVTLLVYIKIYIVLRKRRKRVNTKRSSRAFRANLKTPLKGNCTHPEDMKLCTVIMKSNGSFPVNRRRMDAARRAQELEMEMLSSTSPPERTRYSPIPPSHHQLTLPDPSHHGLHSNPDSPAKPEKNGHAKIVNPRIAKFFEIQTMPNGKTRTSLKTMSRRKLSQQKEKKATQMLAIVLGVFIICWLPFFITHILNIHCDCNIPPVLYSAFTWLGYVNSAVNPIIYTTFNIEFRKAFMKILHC
Nature of the data set: Affinity for dopamine 2 receptor (tritiated spiperone binding). Set-up: species or system Wistar rats. The conditions noted are these: rat corpus striatum synaptosomes; [3H]spiperone 0.2 nM; 37° C., 20 min. Here is the method: Affinity for dopamine 2 receptor
A specific binding of dopamine 2 (D2) receptor was tested according to the method described in Eur. J. Pharmacol. 46, 377 (1977).
A synaptosome fraction was separated from corpus striatum of 9-10 week-old Wistar rats, and suspended in 50 mM Tris-HCl buffer (pH 7.1) containing 120 mM sodium chloride, 5 mM potassium chloride, 2 mM calcium chloride, 1 mM magnesium chloride, 10 μM pargyline and 0.1% ascorbic acid for the experiment.
The test compound at several concentrations and tritiated spiperone (final concentration 0.2 nM) were added to the synaptosome suspension, and each mixture was incubated at 37° C. for 20 minutes. After the incubation, the mixture was filtered with suction through Whatman GF/B (trade mark) glass filter. The filter was washed with 50 mM Tris-HCl buffer (pH 7.7), and the radioactivity of the filter was measured by a liquid scintillation counter. Non-specific binding was determined in the presence of 10^-4 M (±)-sulpiride. The concentration necessary for 50% inhibition (IC50) was determined on a graph, and inhibition constant (Ki value) was calculated.

Data set [5] relates to catalepsy induced by haloperidol. As to conditions: preclinical; cited from earlier work.
The test system of data set [6] is conditioned avoidance response (CAR). As to conditions: administered with D2 antagonist; cited from earlier work.
Data set [7] deals with negative symptoms, EPS, depression and internal secretion in patients. The conditions noted are these: cited from earlier work.
The test system of a further data set is D2. As to conditions: cited from earlier work.

SMILES strings stand for the structures. pKi: −log10 of the molar value. “Also recorded” adds a separate entry of the source. Read-outs that look alike come from different tables or passages of the source.

For `CC(=O)N1CCc2c(sc(C)c2CCN2CCC(c3noc4cc(F)ccc34)CC2)C1` [Example 24, 6-acetyl-3-(2-(4-(6-fluoro-1,2-benzisoxazol-3-yl)piperidin-1-yl)ethyl)-4,5,6,7-tetrahydro-2-methylthieno[2,3-c]pyridine], in “Acute toxicity”, the LD50 at 120 h turned out to be 205 mg/kg. In addition, the negative-log Ki (pKi) in [1] was 10.21; in data set [3] it was 7.49; on dopamine 2 (D2) receptor it was 9.34. Further, the ED50 in [2] was 0.39 mg/kg; in data set [4] it was 0.37 mg/kg.
As for `CCCN(CCC)C1CCc2cccc(O)c2C1` (stereo not drawn) [8-OH DPAT, 8-hydroxy-2-dipropyl-aminotetralin], in data set [5], the “effect on catalepsy induced by haloperidol” value is “reverse catalepsy induced by haloperidol”. The “inhibition of conditioned avoidance response (CAR)” value in data set [6] is “inhibit conditioned avoidance response (CAR) more potent than that of D2 antagonist only”.
Consider `Cc1nc2n(c(=O)c1CCN1CCC(c3noc4cc(F)ccc34)CC1)CCCC2` [Risperidone], for which, in data set [7], the “EPS / side-effects in clinical use” value is reported as “low EPS liability” and the “clinical effect on symptoms” value is given as “effective antipsychotic; also recorded: beneficial effects on the negative symptoms of schizophrenia”. Besides, the “EPS / side-effects in clinical use” value in [7] (listed as risperidone) is “EPS is appeared in high dose; also recorded: side-effect of internal secretion”. In the data set on D2, the “D2 receptor antagonistic properties” value is on record as “potent”.

Source of the values: patent US5532240A, “Condensed thiophene compound and pharmaceutical use thereof” (Yoshitomi Pharmaceutical Industries, Ltd., priority 1991, dated 1996).
